Source: patent publication US6867186B2, “Cell-permeable protein inhibitors of calpain” (New England Medical Center Hospital, priority 1997, dated 2005)

Columns and labels:
calpain = assay: Ionophore-dependent calpain degradation of ABP and talin in platelets; type: cell-based; conditions: 5, 8, or 10 minutes A23187
Protocol: To investigate whether calpastat inhibits calpain activity in platelets, the ionophore-dependent proteolysis of actin binding protein (ABP; about 280 kDa) and talin (about 240 kDa), both of which are substrates of both μ- and m-calpains, was examined as follows.
Platelets were pre-incubated with ZLLYCHN2, DMSO (solvent for ZLLY-CHN2), calpastat, or HEPES buffer (buffer for calpastat), and then treated with or without ionophore A23187 for 5, 8, or 10 minutes. The platelets were then gel-purified as described above. Whole cell lysates were prepared and fractionated by SDS polyacrylamide gel electrophoresis.

[1] = test system: red blood cells isolated from sickle cell patients; assay: Na2S2O5-induced sickling of sickle erythrocytes; type: cell-based, human
Protocol: To examine sickling, a wet preparation of red blood cells (as opposed to a dried smear) was made by placing blood under a coverslip on a glass slide. The slide was placed under a light microscope, and the number of cells displaying sickled morphology was counted. Na2S2O5 was used to increase the rate of sickling.
When EDTA-anticoagulated peripheral blood from a sickle cell patient was preincubated with calpastat for 10 minutes prior to exposure to sodium metabisulfite (Na2S2O5), there was a significant delay (about 30 minutes) in sickling.
In a second experiment, the effect of calpastat on recovery from sickling was measured. Blood from the same patient was incubated with Na2S2O5, for two hours in a microfuge tube. The supernatant plasma was then removed from the settled erythrocytes and the erythrocytes were diluted in four volumes of saline. The washed erythrocytes were then incubated in saline, and Wright-Giemsa stained smears were made 60 minutes following the washout of Na2S2O5.

U937 cells = assay: Chemokine production of thapsigargin-stimulated U937 cells; type: cell-based; conditions: 5 nM calpastat
Protocol: peptides can inhibit chemokine production in vitro. The effect of […] on chemokine production was tested as follows. […] The chemokines (MIP-1α, MIP-1P and RANTES) in the supernatants of U937 cells were assayed using QuantikineTM kits and as described by R&D Systems (Minneapolis, Minn.). […] Thus, […] be used to reduce production of inflammatory cytokines and treat inflammatory disorders.

[2] = sixty minutes following Na2S2O5 washout

Substance: H-AAVALLPAVLLALLAPEKLGERDDTIPPEYRELLEKKTGV-OH [Calpastat]
- A23187-dependent calpain degradation of ABP and talin in platelets (calpain): inhibited
- final percentage of sickled cells ([1]; Na2S2O5): no detectable difference
- delay in sickling ([1]; preincubated 10 minutes prior to Na2S2O5): about 30 minutes
- percentage of discocytes compared to S-TIPPEY-ala-treated cells [1, 2]: two-fold greater
- percentage of sickled cells compared to S-TIPPEY-ala-treated cells [1, 2]: two-fold lower
- reduction of production of chemokines (MIP-1α, MIP-1P and RANTES) (U937 cells): about one third
